Data taken from ChEMBL document CHEMBL2440076, “New triarylpyrazoles as broad-spectrum anticancer agents: design, synthesis, and biological evaluation” (Eur J Med Chem, 2013).

Legend:
ACHN = experiment: Growth inhibition of human ACHN cells assessed as cell growth at 10 uM after 48 hrs by sulforhodamine B assay; format: functional; details: read-out: Activity
K562 = experiment: Growth inhibition of human K562 cells after 48 hrs by sulforhodamine B assay; format: functional; details: K562, 48 h
NCI-H522 = experiment: Growth inhibition of human NCI-H522 cells assessed as cell growth at 10 uM after 48 hrs by sulforhodamine B assay; format: functional; details: NCI-H522, 48 h, read-out: Activity
A498 = experiment: Growth inhibition of human A498 cells after 48 hrs by sulforhodamine B assay; format: functional, cell-based; details: A498, 48 h
HOP-92 [1] = experiment: Growth inhibition of human HOP92 cells assessed as cell growth at 10 uM after 48 hrs by sulforhodamine B assay; format: functional; details: HOP-92, 48 h, read-out: Activity
HL-60(TB) = experiment: Growth inhibition of human HL-60(TB) cells assessed as cell growth at 10 uM after 48 hrs by sulforhodamine B assay; format: functional; details: HL-60, 48 h, read-out: Activity
HOP-92 [2] = experiment: Growth inhibition of human HOP92 cells after 48 hrs by sulforhodamine B assay; format: functional, cell-based; details: HOP-92, 48 h
CAKI-1 = experiment: Growth inhibition of human CAKI-1 cells after 48 hrs by sulforhodamine B assay; format: functional; details: CAKI-1, 48 h
UO-31 = experiment: Growth inhibition of human UO31 cells assessed as cell growth at 10 uM after 48 hrs by sulforhodamine B assay; format: functional; details: UO-31, 48 h, read-out: Activity
[3] = Growth inhibition of human Hs 578T cells after 48 hrs by sulforhodamine B assay; format: functional
[4] = Growth inhibition of human HCC2998 cells after 48 hrs by sulforhodamine B assay; format: functional; details: HCC 2998, 48 h
Malme-3M = experiment: Growth inhibition of human MALME-3M cells after 48 hrs by sulforhodamine B assay; format: functional
A549 = experiment: Growth inhibition of human A549/ATCC cells after 48 hrs by sulforhodamine B assay; format: functional; details: A549, 48 h
SK-OV-3 = experiment: Growth inhibition of human SKOV3 cells assessed as cell growth at 10 uM after 48 hrs by sulforhodamine B assay; format: functional; details: SK-OV-3, 48 h, read-out: Activity
IGROV-1 = experiment: Growth inhibition of human IGROV1 cells assessed as cell growth at 10 uM after 48 hrs by sulforhodamine B assay; format: functional; details: IGROV-1, 48 h, read-out: Activity
OVCAR-4 = experiment: Growth inhibition of human OVCAR4 cells assessed as cell growth at 10 uM after 48 hrs by sulforhodamine B assay; format: functional; details: OVCAR-4, 48 h, read-out: Activity
SK-MEL-28 = experiment: Growth inhibition of human SK-MEL-28 cells assessed as cell growth at 10 uM after 48 hrs by sulforhodamine B assay; format: functional; details: SK-MEL-28, 48 h, read-out: Activity
SNB-75 = experiment: Growth inhibition of human SNB75 cells after 48 hrs by sulforhodamine B assay; format: functional; details: SNB-75, 48 h
SW-620 [5] = experiment: Growth inhibition of human SW620 cells after 48 hrs by sulforhodamine B assay; format: functional; details: SW-620, 48 h
SF-539 = experiment: Growth inhibition of human SF539 cells assessed as cell growth at 10 uM after 48 hrs by sulforhodamine B assay; format: functional; details: SF-539, 48 h, read-out: Activity
MDA-MB-231 = experiment: Growth inhibition of human MDA-MB-231 cells after 48 hrs by sulforhodamine B assay; format: functional; details: MDA-MB-231, 48 h
NCI-H460 = experiment: Growth inhibition of human NCI-H460 cells after 48 hrs by sulforhodamine B assay; format: functional; details: NCI-H460, 48 h
OVCAR-3 [6] = experiment: Growth inhibition of human OVCAR3 cells assessed as cell growth at 10 uM after 48 hrs by sulforhodamine B assay; format: functional; details: OVCAR-3, 48 h, read-out: Activity
[7] = Growth inhibition of human NCI-ADR-RES cells assessed as cell growth at 10 uM after 48 hrs by sulforhodamine B assay; format: functional; details: read-out: Activity
T47D = experiment: Growth inhibition of human T47D cells after 48 hrs by sulforhodamine B assay; format: functional
TK-10 = experiment: Growth inhibition of human TK10 cells after 48 hrs by sulforhodamine B assay; format: functional; details: TK-10, 48 h
SW-620 [8] = experiment: Growth inhibition of human SW620 cells assessed as cell growth at 10 uM after 48 hrs by sulforhodamine B assay; format: functional; details: SW-620, 48 h, read-out: Activity
UACC-62 = experiment: Growth inhibition of human UACC62 cells assessed as cell growth at 10 uM after 48 hrs by sulforhodamine B assay; format: functional; details: UACC-62, 48 h, read-out: Activity
HCT-15 = experiment: Growth inhibition of human HCT15 cells after 48 hrs by sulforhodamine B assay; format: functional; details: HCT-15, 48 h
RPMI-8226 = experiment: Growth inhibition of human RPMI8226 cells after 48 hrs by sulforhodamine B assay; format: functional, cell-based; details: RPMI-8226, 48 h
OVCAR-3 [9] = experiment: Growth inhibition of human OVCAR3 cells after 48 hrs by sulforhodamine B assay; format: functional, cell-based; details: OVCAR-3, 48 h
SNB-19 = experiment: Growth inhibition of human SNB19 cells assessed as cell growth at 10 uM after 48 hrs by sulforhodamine B assay; format: functional; details: SNB-19, 48 h, read-out: Activity
MCF7 = experiment: Growth inhibition of human MCF7 cells assessed as cell growth at 10 uM after 48 hrs by sulforhodamine B assay; format: functional; details: MCF7, 48 h, read-out: Activity
[10] = Growth inhibition of human NCI-ADR-RES cells after 48 hrs by sulforhodamine B assay; format: functional
[11] = read-out: LC50 (the source's name)

## O=C(Nc1cccc(-n2cc(-c3ccncc3)c(-c3ccc(Cl)c(O)c3)n2)c1)Nc1cc(C(F)(F)F)cc(C(F)(F)F)c1
ACHN
  growth at 10 µM: 8.48%
K562
  GI50: 0.433 µM
  TGI: 3.93 µM
K562; [11]
  CC50: > 50 µM
NCI-H522
  growth at 10 µM: -50.1%
A498
  GI50: 0.792 µM
  IC50: 0.79 µM
  TGI: 4.33 µM
A498; [11]
  CC50: 16 µM
HOP-92 [1]
  growth at 10 µM: -45.8%
HL-60(TB)
  growth at 10 µM: -18.3%
HOP-92 [2]
  GI50: 0.344 µM
  IC50: 0.34 µM
  LC50: 8.66 µM
  TGI: 1.75 µM
CAKI-1
  GI50: 1.01 µM
  TGI: 4.42 µM
CAKI-1; [11]
  CC50: 26.5 µM
UO-31
  growth at 10 µM: -34.4%
[3]
  GI50: 1.14 µM
  TGI: 4.08 µM
[3]; [11]
  CC50: > 50 µM
[4]
  GI50: 1.03 µM
  TGI: 2.41 µM
[4]; [11]
  CC50: 7.16 µM
Malme-3M
  GI50: 0.939 µM
  LC50 (concentration killing 50% of starting cells): 23.5 µM
  TGI: 3.03 µM
A549
  GI50: 0.298 µM
  LC50 (concentration killing 50% of starting cells): 11.4 µM
  TGI: 1.69 µM
SK-OV-3
  growth at 10 µM: -24.4%
IGROV-1
  growth at 10 µM: 4.8%
OVCAR-4
  growth at 10 µM: 0.87%
SK-MEL-28
  growth at 10 µM: -62.4%
SNB-75
  GI50: 0.877 µM
  LC50 (lethal concentration, 50% net cell kill): 7.03 µM
  TGI: 2.18 µM
SW-620 [5]
  GI50: 1.3 µM
  TGI: 5.11 µM
SW-620 [5]; [11]
  CC50: 23.4 µM
SF-539
  growth at 10 µM: -63%
MDA-MB-231
  GI50: 0.739 µM
  LC50: 3.72 µM
  TGI: 1.66 µM
NCI-H460
  GI50: 0.413 µM
  LC50: 4.86 µM
  TGI: 1.48 µM
OVCAR-3 [6]
  growth at 10 µM: -67.5%
[7]
  growth at 10 µM: 4.72%
T47D
  GI50: 1.82 µM
  TGI: 14 µM
T47D; [11]
  CC50: > 50 µM
TK-10
  GI50: 0.959 µM
  TGI: 3.58 µM
TK-10; [11]
  CC50: 14.2 µM
SW-620 [8]
  growth at 10 µM: 3.32%
UACC-62
  growth at 10 µM: -65.6%
HCT-15
  GI50: 0.474 µM
  LC50: 21.2 µM
  TGI: 3.52 µM
RPMI-8226
  GI50: 0.477 µM
  IC50: 0.48 µM
  TGI: > 50 µM
RPMI-8226; [11]
  CC50: > 50 µM
OVCAR-3 [9]
  GI50: 0.395 µM
  IC50: 0.4 µM
  TGI: 1.2 µM
OVCAR-3 [9]; [11]
  CC50: 3.31 µM
SNB-19
  growth at 10 µM: 11.3%
MCF7
  growth at 10 µM: 2.71%
[10]
  GI50: 1.07 µM
  TGI: 5.25 µM
[10]; [11]
  CC50: 38.7 µM

## COc1cc(-c2nn(-c3cccc(NC(=O)Nc4ccccc4)c3)cc2-c2ccncc2)ccc1Cl
ACHN
  growth at 10 µM: 78.2%
NCI-H522
  growth at 10 µM: 67.4%
HL-60(TB)
  growth at 10 µM: 91.3%
UO-31
  growth at 10 µM: 56.5%
SK-OV-3
  growth at 10 µM: 97.1%
IGROV-1
  growth at 10 µM: 86.5%
OVCAR-4
  growth at 10 µM: 90.5%
SK-MEL-28
  growth at 10 µM: 86.3%
SF-539
  growth at 10 µM: 90%
OVCAR-3 [6]
  growth at 10 µM: 86.4%
[7]
  growth at 10 µM: 72.8%
SW-620 [8]
  growth at 10 µM: 82.8%
UACC-62
  growth at 10 µM: 86.5%
SNB-19
  growth at 10 µM: 89.5%
MCF7
  growth at 10 µM: 88.8%

## O=C(Nc1cccc(-n2cc(-c3ccncc3)c(-c3ccc(Cl)c(O)c3)n2)c1)c1ccccc1
ACHN
  growth at 10 µM: 53.2%
NCI-H522
  growth at 10 µM: 42.3%
HOP-92 [1]
  growth at 10 µM: 3.59%
HL-60(TB)
  growth at 10 µM: 167%
UO-31
  growth at 10 µM: 83.1%
SK-OV-3
  growth at 10 µM: 80.1%
IGROV-1
  growth at 10 µM: 88%
OVCAR-4
  growth at 10 µM: 40.7%
SK-MEL-28
  growth at 10 µM: 48.1%
SF-539
  growth at 10 µM: 74.7%
OVCAR-3 [6]
  growth at 10 µM: 82.1%
[7]
  growth at 10 µM: 62.7%
SW-620 [8]
  growth at 10 µM: 76.9%
UACC-62
  growth at 10 µM: 68.3%
SNB-19
  growth at 10 µM: 99.7%
MCF7
  growth at 10 µM: 62.6%
